Measured values as given in patent US6962906B2, “Oligonucleotide analogues, methods of synthesis and methods of use” (Active Motif, priority 2000, dated 2005).
Where “and” joins values, the source holds several entries; their conditions need not be identical. Equal values may be shown once.

Columns and labels:
Assay type in all cases: binding
[1] = system: DNA oligomer 5′-TGGTCTCACGTCAGTG-3′ (SEQ ID NO: 19); test: Melting curve analysis, mismatch discrimination in moderate salt, DNA/DNA control; settings: for Tm, ° C. DNA/DNA: 20 millimolar Tris-HCl, pH 7.5, 150 millimolar NaCl, 10 millimolar MgCl2, oligomers 1:1; for ΔTm DNA/DNA: 150 millimolar NaCl, relative to no mismatches
Text: (§1) The sequence of the […] oligomer was: Th-Gp-Gh-Tp-Ch-Tp-Ch-Ap-Ah-Gp-Th-Cp-Ah-Gp-Th-Gp-dT, where the subscript h denotes a “HypNA” monomeric unit and the subscript p denotes a “pPNA” monomeric unit. […] For performing DNA-DNA control hybridizations, a DNA oligomer with a sequence identical to that of the […] oligomer, […]) was also synthesized. To perform the melting curve analysis, the DNA oligomers and […] oligomers were mixed at a 1:1 in a volume of 400 microliters. For nucleic acid hybridization controls, DNA oligomers and complementary (or partially complementary) DNA oligomers, were mixed at a 1:1 ratio in a volume of 400 microliters. The hybridization solutions contained 20 millimolar Tris-HCl, pH 7.5, 150 millimolar NaCl, and 10 millimolar MgCl2. The mixtures of DNA oligomers or DNA oligomers with […] oligomers were then incubated at 90 degrees C. for 3 minutes and allowed to cool gradually to room temperature overnight. […] Changes in the absorbance at 260 nanometers were recorded, and a Tm was calculated for each combination of oligomers. In some cases, there was no discernible Tm, which we interpret to be the result of the inability of particular oligomer pairs to form stable complexes.

HypNA-pPNA 16-mer [2] = test: Melting curve analysis, mismatch discrimination in moderate salt, PNA/DNA; settings: for Tm, ° C. PNA/DNA: 20 millimolar Tris-HCl, pH 7.5, 150 millimolar NaCl, 10 millimolar MgCl2, oligomers 1:1, * = Tms not reliable, complex probably unstable; for ΔTm PNA/DNA: 150 millimolar NaCl, relative to no mismatches
Text: as §1

[3] = system: DNA oligomer with a sequence identical to that of the HypNA-pPNA oligomer; test: Melting curve analysis, mismatch discrimination in high salt, DNA/DNA control; settings: for Tm, ° C. DNA/DNA: 20 millimolar Tris-HCl, pH 7.5, 500 millimolar NaCl, 10 millimolar MgCl2, oligomers 1:1; for ΔTm DNA/DNA: 500 millimolar NaCl, relative to no mismatches
Text: (§2) The sequence of the […] oligomer was: Th-Gp-Gh-Tp-Ch-Tp-Ch-Ap-Ah-Gp-Th-Cp-Ah-Gp-Th-Gp-. […] For performing DNA-DNA control hybridizations, a DNA oligomer with a sequence identical to that of the […] oligomer was also synthesized. To perform the melting curve analysis, the DNA oligomers and […] oligomers were mixed at a 1:1 ratio in a volume of 400 microliters. For nucleic acid hybridization controls, DNA oligomers and complementary (or nearly complementary) DNA oligomers, were mixed at a 1:1 ratio in a volume of 400 microliters. The hybridization solutions contained 20 millimolar Tris-HCl, pH 7.5, 500 millimolar NaCl, and 10 millimolar MgCl2. The mixtures of DNA oligomers or DNA oligomers with […] oligomers were then incubated at 90 degrees C. for 3 minutes and allowed to cool gradually to room temperature overnight. […] Changes in the absorbance at 260 nanometers were recorded, and a Tm was calculated for each combination of oligomers. In some cases, there was no discernible Tm, which we interpret to be the result of the inability of particular oligomer pairs to form stable complexes.

HypNA-pPNA 16-mer [4] = test: Melting curve analysis, mismatch discrimination in high salt, PNA/DNA; settings: for Tm, ° C. PNA/DNA: 20 millimolar Tris-HCl, pH 7.5, 500 millimolar NaCl, 10 millimolar MgCl2, oligomers 1:1; for ΔTm PNA/DNA: 500 millimolar NaCl, relative to no mismatches
Text: as §2

[5] = system: Oligonucleotide probes labeled with ^32P (DNA probe); test: Hybridization of support-bound polyacrylamide-oligomer co-polymers to labeled oligonucleotide probes; effect of single-base mismatches; settings: 0.1 M NaCl, 10 mM sodium phosphate (pH 7), 5 mM EDTA, 10 mM MgCl2, 0.1% sodium dodecyl sulfate

Substance	Tm, ° C. DNA/DNA [1]	ΔTm DNA/DNA [1]	Tm, ° C. PNA/DNA (HypNA-pPNA 16-mer [2])	ΔTm PNA/DNA (HypNA-pPNA 16-mer [2])	Tm, ° C. DNA/DNA [3]	ΔTm DNA/DNA [3]	Tm, ° C. PNA/DNA (HypNA-pPNA 16-mer [4])	ΔTm PNA/DNA (HypNA-pPNA 16-mer [4])	Td (degr. C.) [5]	Tm (degr. C.) [5]
5′-CAC TGA CGT GAG ACC A -3′ (SEQ ID NO: 26) (DNA CACTGACGTGAGACCA; DNA, backbone not given here) [Mismatch F, DNA oligomer with mismatch to the HypNA-pPNA 16-mer]	52.6 °C and 55.6 °C	9 °C and 6.1 °C	43.7 °C	14.5 °C and 14.2 °C	53.9 °C and 55.3 °C	10 °C and 9 °C	No Tm	–	–	–
5′-CAC TGA CAT GAG ACC A -3′ (SEQ ID NO: 28) (DNA CACTGACATGAGACCA; DNA, backbone not given here) [Mismatch H, DNA oligomer with mismatch to the HypNA-pPNA 16-mer]	50.0 °C and 53.4 °C	11.6 °C and 8.3 °C	52.7 °C and 51.8 °C	5.5 °C and 6.1 °C	55.1 °C and 53.3 °C	9 °C and 11 °C	41.3 °C and 43.5 °C	17 °C and 15 °C	–	–
20 (DNA CTGCAAAGCACACCATGA; DNA, backbone not given here) [Oligomer 20]	–	–	–	–	–	–	–	–	41 degr. C.	40 degr. C.
5′-CGG TGA CTT GAG ACC A -3′ (SEQ ID NO: 25) (DNA CGGTGACTTGAGACCA; DNA, backbone not given here) [Mismatch E, DNA oligomer with mismatches to the HypNA-pPNA 16-mer]	52.7 °C and 55.1 °C	8.9 °C and 6.6 °C	–	–	56.5 °C and 56.8 °C	7 °C	No Tm	–	–	–
5′-CAC TGA CTT GAG ACG A -3′ (SEQ ID NO: 24) (DNA CACTGACTTGAGACGA; DNA, backbone not given here) [Mismatch D, DNA oligomer with mismatch to the HypNA-pPNA 16-mer]	–	–	–	–	60.8 °C and 62.7 °C	–	54.3 °C and 54.9 °C	4 °C and 3 °C	–	–
5′-CAC TGA GTT CAG ACC A -3′ (SEQ ID NO: 29) (DNA CACTGAGTTCAGACCA; DNA, backbone not given here) [Mismatch K, DNA oligomer with mismatches to the HypNA-pPNA 16-mer]	33.3 °C and 36.2 °C	28.3 °C and 25.5 °C	–	7 °C	–	–	–	–	–	–
5′-CAC TGA GTT GGG ACC A -3′ (SEQ ID NO: 31) (DNA CACTGAGTTGGGACCA; DNA, backbone not given here) [Mismatch L, DNA oligomer with mismatches to the HypNA-pPNA 16-mer]	47.4 °C and 50.0 °C	14.2 °C and 11.7 °C	–	24.3 °C	–	–	–	–	–	–
19 (DNA CTGCAAAGGACACCATGA; DNA, backbone not given here) [Oligomer 19]	–	–	–	–	–	–	–	–	55 degr. C.	54 degr. C.
5′-CAC TGA CTG GAG ACC A -3′ (SEQ ID NO: 27) (DNA CACTGACTGGAGACCA; DNA, backbone not given here) [Mismatch G, DNA oligomer with mismatch to the HypNA-pPNA 16-mer]	52.2 °C and 52.6 °C	9.4 °C and 9.1 °C	–	–	56.2 °C and 56.1 °C	8 °C	No Tm	–	–	–
5′-CAC TGA GTT GAG ACC A -3′ (SEQ ID NO: 21) [Mismatch A]	51.7 °C and 51.8 °C	9.9 °C	45.1 °C and 45.4 °C	13.1 °C and 12.5 °C	–	7 °C	41.4 °C and 41.1 °C	17 °C	–	–
5′-CAC TGA CTT GAG ACC A -3′ (SEQ ID NO: 20) [No mismatches]	61.7 °C and 61.6 °C	–	57.9 °C and 58.2 °C	–	63.8 °C and 64.5 °C and 64.0 °C	–	59.1 °C and 58.0 °C	–	–	–
5′-CAC GGA GTT GAG ACC A -3′ (SEQ ID NO: 32) (DNA CACGGAGTTGAGACCA; DNA, backbone not given here) [Mismatch M, DNA oligomer with mismatches to the HypNA-pPNA 16-mer]	50.2 °C and 45.2 °C	11.5 °C and 16.4 °C	–	–	–	–	–	–	–	–
5′-CAC TGA GTG GAG ACC A -3′ (SEQ ID NO: 22) (DNA CACTGAGTGGAGACCA; DNA, backbone not given here) [Mismatch B, DNA oligomer with mismatches to the HypNA-pPNA 16-mer]	42.6 °C	19 °C and 18.9 °C	–	–	–	–	No Tm	–	–	–
5′-CAC TGA CTT GAG TCC A -3′ (SEQ ID NO: 23) (DNA CACTGACTTGAGTCCA; DNA, backbone not given here) [Mismatch C, DNA oligomer with mismatch to the HypNA-pPNA 16-mer]	51.6 °C and 53.8 °C	10 °C and 7.9 °C	48.3 °C and 49.2 °C	9.9 °C and 8.7 °C	–	–	–	–	–	–
5′-CAC TGA ATT GAG ACC A -3′ (SEQ ID NO: 30) (DNA CACTGAATTGAGACCA; DNA, backbone not given here) [Mismatch J, DNA oligomer with mismatch to the HypNA-pPNA 16-mer]	52.3 °C and 52.5 °C	9.3 °C and 9.2 °C	–	–	–	–	–	–	–	–
